# From patent US20250195530A1, “POLQ INHIBITORS” (ASTRAZENECA AB, priority 2022, published 2025)
# Like-named read-outs stand apart in the source and are kept apart here.
# System: DLD-1 BRCA2−/− cells
# Assay: Homologous recombination synthetic lethal inhibition of proliferation, DLD-1 BRCA2-/- (Cell Titre Glo 3D)
# Type: cell-based
# Settings: Homo sapiens, DLD-1 BRCA2-/-, read-out: POLQ PD Prolif Lumin (converted)
# How it was run: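 Luminescent Cell Titre Glo 3D readout, taken on day 12 for homologous-recombination-deficient DLD-1 BRCA2−/− and day 7 for the wild-type control, after compound refresh on day 6. Compounds spanned 10 μM to 0.51 nM in three-fold steps; IC50 defined as 50% reduction of average maximum signal.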
# [1] = DLD-1, first proliferation column (c5)
structure (smiles),measurement,setting,value
"Cc1ccnc(Cn2c(-c3ccc(OCC(=O)N4C[C@H]5C[C@@H](C4)O5)cc3Cl)nc3c(OC4(C)CC4)ncnc32)c1 [Example T550, rel-1-((1R,5S)-6-oxa-3-azabicyclo[3.1.1]heptan-3-yl)-2-(3-chloro-4-(6-(1-methylcyclopropoxy)-9-((4-methylpyridin-2-yl)methyl)-9H-purin-8-yl)phenoxy)ethan-1-one]",IC50,[1],316 nM
"Cc1ccnc(Cn2c(-c3ccc(OCC(=O)N4CCC[C@H](F)C4)cc3Cl)nc3c(OC4(C)CC4)ncnc32)c1 [Example T552, (S)-2-(3-chloro-4-(6-(1-methylcyclopropoxy)-9-((4-methylpyridin-2-yl)methyl)-9H-purin-8-yl)phenoxy)-1-(3-fluoropiperidin-1-yl)ethan-1-one]",IC50,[1],158 nM
"Cc1ccnc(Cn2c(-c3ccc(OCC(=O)N4CCC(F)CC4)cc3Cl)nc3c(OC4(C)CC4)ncnc32)c1 [Example T553, 2-(3-chloro-4-(6-(1-methylcyclopropoxy)-9-((4-methylpyridin-2-yl)methyl)-9H-purin-8-yl)phenoxy)-1-(4-fluoropiperidin-1-yl)ethan-1-one]",IC50,[1],200 nM
"Cc1ccnc(Cn2c(-c3ccc(CC(=O)N4CC5(CCN5)C4)cc3Cl)nc3c(OC4(C)CC4)ncnc32)c1 [Example T556, 2-(3-chloro-4-(6-(1-methylcyclopropoxy)-9-((4-methylpyridin-2-yl)methyl)-9H-purin-8-yl)phenyl)-1-(1,6-diazaspiro[3.3]heptan-6-yl)ethan-1-one]",IC50,[1],6310 nM
"Cc1ccnc(Cn2c(-c3ccc(CC(=O)N4C5CNCC4C5)cc3Cl)nc3c(OC4(C)CC4)ncnc32)c1 [Example T557, 1-(3,6-diazabicyclo[3.1.1]heptan-6-yl)-2-(3-chloro-4-(6-(1-methylcyclopropoxy)-9-((4-methylpyridin-2-yl)methyl)-9H-purin-8-yl)phenyl)ethan-1-one]",IC50,[1],6310 nM
"Cc1ccnc(Cn2c(-c3ccc(CC(=O)N4CC5(CNC5)C4)cc3Cl)nc3c(OC4(C)CC4)ncnc32)c1 [Example T558, 2-(3-chloro-4-(6-(1-methylcyclopropoxy)-9-((4-methylpyridin-2-yl)methyl)-9H-purin-8-yl)phenyl)-1-(2,6-diazaspiro[3.3]heptan-2-yl)ethan-1-one]",IC50,[1],> 10000 nM
"CC(C)(CCOc1ccc(-c2nc3c(OC4(C)CC4)ncnc3n2Cc2cccc(Cl)c2)c(Cl)c1)CC(=O)O [Example T562, 5-(3-chloro-4-(9-(3-chlorobenzyl)-6-(1-methylcyclopropoxy)-9H-purin-8-yl)phenoxy)-3,3-dimethylpentanoic acid]",IC50,[1],126 nM
"CC1(Oc2ncnc3c2nc(-c2cccc(OCCCCCCC(=O)O)c2Cl)n3Cc2cccc(Cl)c2)CC1 [Example T564, 7-(2-chloro-3-(9-(3-chlorobenzyl)-6-(1-methylcyclopropoxy)-9H-purin-8-yl)phenoxy)heptanoic acid]",IC50,[1],31.6 nM
"CC1(Oc2ncnc3c2nc(-c2cccc(OCCCC(C)(C)C(=O)O)c2Cl)n3Cc2cccc(Cl)c2)CC1 [Example T565, 5-(2-chloro-3-(9-(3-chlorobenzyl)-6-(1-methylcyclopropoxy)-9H-purin-8-yl)phenoxy)-2,2-dimethylpentanoic acid]",IC50,[1],100 nM
"CC1(Oc2ncnc3c2nc(-c2ccc(OCCN4CCNCC4C(F)F)cc2Cl)n3Cc2ccccc2)CC1 (centres unmarked) [Example T567, 9-benzyl-8-(2-chloro-4-(2-(2-(difluoromethyl)piperazin-1-yl)ethoxy)phenyl)-6-(1-methylcyclopropoxy)-9H-purine]",IC50,[1],158 nM
"Cc1ccnc(Cn2c(-c3ccc(CC(=O)N4CC[C@](C)(O)C4)cc3Cl)nc3c(OC4(C)CC4)ncnc32)c1 [Example T575, (S)-2-(3-chloro-4-(6-(1-methylcyclopropoxy)-9-((4-methylpyridin-2-yl)methyl)-9H-purin-8-yl)phenyl)-1-(3-hydroxy-3-methylpyrrolidin-1-yl)ethan-1-one]",IC50,"DLD-1, first proliferation column",316 nM
